Test results reported in US5055485A, “Inactivation of viruses in cell- and protein-containing compositions using aryl diol epoxides” (New York Blood Center, Inc., priority 1988, dated 1991).
Values after ≈ are worked out from the molar mass of the structure shown. Where two headings read alike, the source gives them in different places.

Key:
[1] = background art; cited from earlier work
DNA = conditions: background art; cited from earlier work
[2] = tested on: proteinaceous components of the plasma; conditions: background art; cited from earlier work
factor VIII = conditions: background art; cited from earlier work
VSV [3] = type: cell-based, vesicular stomatitis virus
VSV [4] = test: microbe, parasite or virus in culture; type: cell-based, vesicular stomatitis virus; conditions: for log reduction at 10 µM: Vesicular stomatitis virus, 6 h
Fibrinogen = test: Plasma protein functional activity: fibrinogen clottability; type: biochemical; conditions: human plasma, 10 μm, 6 hours, 24° C.
AHF = test: Plasma protein functional activity: AHF; type: biochemical; conditions: human plasma, 10 μm, 6 hours, 24° C.
Factor IX = test: Plasma protein functional activity: Factor IX; type: biochemical; conditions: human plasma, 10 μm, 6 hours, 24° C.
Haptoglobin = test: Plasma protein: haptoglobin; type: biochemical; conditions: human plasma, 10 μm, 6 hours, 24° C.
[5] = tested on: washed human red blood cells; test: Red cell structural and functional integrity; conditions: conditions of Example 2
selected plasma proteins = test: Functional activity of selected plasma proteins, overall; type: biochemical; conditions: human plasma, 10 μm, 6 hours, 24° C.
[6] = Solubility in aqueous media / water; type: physicochemical
[7] = tested on: Vesicular stomatitis virus (VSV); type: cell-based
VSV [8] = test: microbe, parasite or virus in culture; type: cell-based; conditions: Vesicular stomatitis virus, A549, read-out: virus kill (cell-associated VSV)
Anti-HBsAg = test: Plasma protein functional activity: Anti-HBsAg titer; type: biochemical; conditions: human plasma, 10 μm, 6 hours, 24° C.
[9] = Hydrolysis in aqueous medium; type: physicochemical; conditions: iscove's medium 10% fbs; Iscove's medium containing 10% fetal bovine serum
viruses = conditions: background art; cited from earlier work

**Q.** For `Nc1ccc2cc3ccc(N)cc3nc2c1` [proflavin], which “water solubility (in words)” value [1] is on record?
**A.** The value was “water soluble”.

**Q.** What about the “binding to DNA” value (DNA) of the same molecule?
**A.** Its value is “bind extremely well to DNA”.

**Q.** Which “denaturation of plasma proteins” value [2] does the source give for `C=O` [formaldehyde] here?
**A.** The value was “denatured the valuable proteinaceous components of the plasma”.

**Q.** Which “denaturation of plasma proteins” value [2] does the source give for `OCl` [sodium hypochlorite] here?
**A.** Its value is “denatured the valuable proteinaceous components of the plasma”.

**Q.** What does the source list for `O=C1CCO1` [Beta-propiolactone, beta-propiolactone]?
**A.** loss of factor VIII content of plasma (factor VIII): more than half of the factor VIII content of plasma is lost; denaturation of plasma proteins [2]: substantially denaturate valuable plasma proteins

**Q.** Which results are given for `O[C@H]1[C@H]2O[C@H]2c2c(cc3ccc4cccc5ccc2c3c45)[C@@H]1O` (relative stereo) [BAPDE, trans-7,8-dihydroxy [anti] 9,10 epoxy-7,8,9,10-tetrahydro benzo[a]pyrene]?
**A.** VSV inactivation in the presence of red cells (in words) (VSV [3]): reduced in the presence of red cells; virus titer reduction (VSV [3]): at least 3 logs; VSV Infectivity following treatment with BAPDE (VSV [4]): < -0.5; log reduction at 10 µM (VSV [4]; read-out: virus inactivation): > 4.5; log reduction at 10 µM (VSV [4]; read-out: VSV Infectivity change: log10 Kill): > 4.6; Fibrinogen clottability Recovery (%) (Fibrinogen): 100%; Fibrinogen clottability following treatment with BAPDE (Fibrinogen; no treatment clottable): clottable; AHF Recovery (%) (AHF): 79%; AHF following treatment with BAPDE (AHF; no treatment 0.70): 0.55 units/ml; Factor IX Recovery (%) (Factor IX): 100%; Factor IX following treatment with BAPDE (Factor IX; no treatment 0.9): 0.9 units/ml; Haptoglobin Recovery (%) (Haptoglobin): 97%; Haptoglobin following treatment with BAPDE (Haptoglobin; no treatment 175): 170 mg/dL; 2,3 diphosphoglycerate levels [5]: within the normal range; ATP levels [5]: within the normal range; Red cell structural and functional integrity [5]: not compromised; hemoglobin content [5]: within the normal range; osmotic fragility [5]: within the normal range; loss of protein functional activity (in words) (selected plasma proteins): without significant loss of protein functional activity; solubility [6]: 1 to 10 µM (≈ 0.302 to 3.02 µg/mL); virus inactivated [7]: > 5 logs; toxicity to A549 cells (A549 cells): Neither BAPDE nor the solvent in which it was dissolved (e.g., tetrahydroturan) were toxic to A549 cells; log reduction at 3 µM (VSV [8]): > 5.5; Anti-HBsAg Recovery (%) (Anti-HBsAg): 110%; Anti-HBsAg following treatment with BAPDE (Anti-HBsAg; no treatment 0.50): 0.55 titer; half-life [9]: ~30 min

**Q.** Which results are given for `CN(C)c1ccc2cc3ccc(N(C)C)cc3nc2c1` [acridine orange]?
**A.** water solubility (in words) [1]: water soluble; binding to DNA (DNA): bind extremely well to DNA

**Q.** With `O=CCCCC=O` [glutaraldehyde] as the molecule, how does the “viral inactivation and effect on cells (in words)” value (viruses) read?
**A.** Its value is “inactivates viral infectivity, but fixes cells”.

**Q.** What about the “denaturation of plasma proteins” value [2] of the same molecule?
**A.** Its value is “denatured the valuable proteinaceous components of the plasma”.
